Entries after “also recorded” stand apart in the source; their conditions may differ.
Legend:
[1] = test system: mice subjected to closed head injury (CHI); assay: Lesion volume after CHI in mice; format: in vivo, mouse; conditions: day 7 after CHI
Procedure: Seven days after CHI, vehicle-treated (n=5) and FTS-treated (n=4) mice were decapitated and their brains were removed (within 1 minute), frozen in powdered dry ice, and kept at −70° C. until used. Consecutive 20-μ cryostat sections of the whole forebrain were cut in the coronal plane, and one in every ten sections (i.e. at intervals of 200μ) was thaw-mounted onto coated microscope glass slides.
The films were scanned and digitized using PhotoShop and a large bed Umax scanner, and saved in tiff format for accessibility to NIH image software. Using NIH Image routines, the standard curve was measured and used to calibrate regional brain measurements. Morphometry routines were used to measure the lesion area on each section where it was visible. The volume was calculated by multiplying the summed lesion areas by the distance between sections (0.2 mm).

[2] = Pharmacokinetics of [3H]-FTS in the mouse brain; format: in vivo; conditions: [3H]-FTS 3 mg/kg i.p.
Procedure: Farnesyl 1-^3H-thiosalicylic acid ([^3H]-FTS), 12.5 Ci/mmol, 1 mCi/mL, was purchased from American Radiolabeled Chemicals (ARC; St. Louis, Mo., U.S.A.). The labeled drug was isotopically diluted with unlabeled FTS. Mice (ICR strain) were injected i.p. with 0.1 ml of this FTS solution (14.8 μCi, 351 nmol, 3 mg/kg). At each time point (2.5, 5, 10, 20, 60, and 120 min) after the injection, two mice were killed and their brains were removed. The forebrains were washed in PBS, weighed and homogenized, and samples were counted in a scintillation fluid using an LKB β-counter with automatic correction for quenching. Data are expressed as [^3H]-FTS in dpm/g tissue as a function of time.
First it was necessary to determine whether FTS can enter the brain, and if so, whether it can exist there in the micromolar concentration range previously found to be relevant to its efficacy as a Ras inhibitor in vitro (Kloog et al. 1999). To this end, we performed pharmacokinetic experiments in which mice received [^3H]-FTS (3 mg/kg, i.p.), and the amounts of labeled inhibitor in the brain were then determined by counting radioactivity in samples of brain homogenates. […] Based on the specific activity of [^3H]-FTS and assuming a homogeneous distribution in the brain, we estimated that the peak concentration of FTS was 4.5 μM. Thus, under the conditions employed here, it appears that a pharmacologically relevant concentration of FTS in the brain was achieved.

[3] = cited from earlier work
[4] = test system: primary hippocampal and cortical neuronal cultures; format: cell-based, rat
Procedure: Hippocampal and cortical neuronal cultures were prepared from embryonic rat brain essentially as described by Mattson (Mattson P M, Barger S W, Begley J M and Mark R J, Methods Cell Biol 1995; 46: 187-216). Briefly, Sprague Dawley embryos (17-18 days of gestation) were removed and their brains were dissected under the hood and kept in cold in sterile HEPES buffered Hank's balanced salt solution (HBBS) lacking Ca^2+ and Mg^2+, containing 10 μg/ml gentamicin sulfate. The brain regions under study were dissected and cells were dissociated by mild 0.25% trypsin, counted and the dissociation buffer was replaced by culture medium as detailed in Mattson. The cells were plated on poly-L-lysine ([…] solution) coated 24 well plates in Neurobasal medium (Gibco, Grand Island, N.Y. # 2110 3-049) prepared as detailed in Mattson. Hippocampal or cortical cells were plated at a density of 5×10^5 cells per well in 24 well plates and grown in 1 ml medium. Cultures were a kept in humidified 95%, 5% air/CO2 incubator at 37 C for 7 days and then used for the experiments.
Cells were treated with 25 μM FTS either 24 h prior to glutamate (200 μM) treatment or immediately after glutamate treatment. Assays were performed in triplicates. Twenty-four hours after the glutamate treatment, the cells were subjected to viability-cytotoxicity assay using the Live/Dead reagent kit (L-7013, Molecular Probes) essentially as described by the manufacturer. Fluorescent images for live cells (Syto 10, green) and of dead cells (DEAD red) were collected with appropriate filters within 1 h of staining. The number of live cells was estimated by counting the green-labeled cells in 3 fields in each well. The number of live cells in each of the triplicate experimental samples was averaged. These values were used to estimate the percent of cell death comparing the glutamate treated cells (with or without FTS) to untreated controls. The read labeled dead cells could not be used for accurate estimation of cell death under the conditions used because unsynchronized cell-death leads to disintegration of dead cells resulting in inaccurate estimation of the number of dead cells.
In the typical experiments, either hippocampal or cortical neuronal culture was exposed to 25 μM FTS 24 h prior to the addition of glutamate. […] The cells were then exposed to 200 μM glutamate for 30 min. The medium was replaced by glutamate-free medium and 24 h later the cells were subjected to the Live/Dead assay. […] This level of cell death was used as a reference point in all experiments.

[5] = 25 μM FTS 24 h prior to 200 μM glutamate for 30 min, Live/Dead assay 24 h later

CC(C)=CCC/C(C)=C/CC/C(C)=C/CSc1ccccc1C(=O)O [FTS, farnesyl-thiosalicylic acid]
mean lesion volume ([1]; FTS 5 mg/kg 1 hr after CHI, mean±SD of 4 animals, control 155±41 μL, p<0.07): 87 ± 53 µL
reduction in lesion volume (lesion size) ([1]; FTS 5 mg/kg vs vehicle, trend, p<0.07): 50%
lesion volume, range ([1]; FTS 5 mg/kg, 4 animals): 37 to 161 µL
entry of FTS into the brain ([2]; mouse): enters the mouse brain; also recorded: crosses the blood-brain barrier
time for which FTS amounts in the brain remain relatively high ([2]; mouse forebrain): at least 2 hrs
time to peak amounts of FTS in the brain ([2]; mouse forebrain): 20 to 30 min
peak concentration of FTS in the brain ([2]; estimated from specific activity assuming homogeneous distribution in the brain): 4.5 µM
side effects at the 5 mg/kg dose in animal models of neoplasticity ([3]; 5 mg/kg FTS, previous studies (Jansen et al., 1999; Kloog et al., 1999)): without inadvertent side effects
toxicity and adverse side effects in animals ([3]; Kloog et al., 1999): not to be toxic and have no adverse side effects
toxic effects of FTS alone on cultured hippocampal or cortical neurons [4]: no toxic effects
toxic effect of glutamate in cortical cultures [4, 5]: reduced the toxic effect of glutamate
toxic effect of glutamate in hippocampal cultures [4, 5]: markedly reduced
neuroprotective effect against the glutamate toxicity ([4]; hippocampal and cortical cultures, 25 μM FTS 24 h prior to 200 μM glutamate): 70%
percent cell death relative to glutamate treated cells (100% cell death) ([4]; hippocampal and cortical cultures, 25 μM FTS 24 h prior to 200 μM glutamate, FIG. 10): 30%

From patent US20070054886A1, “Ras antagonists for treating neurodegenerative disorders” (RAMOT AT TEL AVIV UNIVERSITY, LTD., priority 2003, published 2007)
